Reference: patent US12540131B2 (Merck Sharp & Dohme LLC, priority 2019, dated 2026)

molecular target: GST tagged truncated human mutant G2019S LRRK2 (Homo sapiens (Human), UniProt Q5S007, G2019S); experiment: LRRK2 Km ATP LanthaScreen Assay; assay type: biochemical; conditions: G2019S LRRK2, 134 μM ATP (Km ATP), mean values
Outline: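 Enzyme (GST-tagged, truncated) was preincubated with compound for 15 min at RT in 50 mM Tris pH 8.5, 10 mM MgCl2, 0.01% Brij-35, 1 mM EGTA, 2 mM DTT and 0.05 mM orthovanadate. Fluorescein-LRRKtide and 134 μM ATP (Km) were then added for 90 min. EDTA and Tb-anti-pERM antibody stopped the reaction; the TR-FRET 520/495 ratio gave 4-parameter IC50s, reported as mean pIC50.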

GST tagged truncated human mutant G2019S LRRK2, sequence (Q5S007 970-2527 G2019S): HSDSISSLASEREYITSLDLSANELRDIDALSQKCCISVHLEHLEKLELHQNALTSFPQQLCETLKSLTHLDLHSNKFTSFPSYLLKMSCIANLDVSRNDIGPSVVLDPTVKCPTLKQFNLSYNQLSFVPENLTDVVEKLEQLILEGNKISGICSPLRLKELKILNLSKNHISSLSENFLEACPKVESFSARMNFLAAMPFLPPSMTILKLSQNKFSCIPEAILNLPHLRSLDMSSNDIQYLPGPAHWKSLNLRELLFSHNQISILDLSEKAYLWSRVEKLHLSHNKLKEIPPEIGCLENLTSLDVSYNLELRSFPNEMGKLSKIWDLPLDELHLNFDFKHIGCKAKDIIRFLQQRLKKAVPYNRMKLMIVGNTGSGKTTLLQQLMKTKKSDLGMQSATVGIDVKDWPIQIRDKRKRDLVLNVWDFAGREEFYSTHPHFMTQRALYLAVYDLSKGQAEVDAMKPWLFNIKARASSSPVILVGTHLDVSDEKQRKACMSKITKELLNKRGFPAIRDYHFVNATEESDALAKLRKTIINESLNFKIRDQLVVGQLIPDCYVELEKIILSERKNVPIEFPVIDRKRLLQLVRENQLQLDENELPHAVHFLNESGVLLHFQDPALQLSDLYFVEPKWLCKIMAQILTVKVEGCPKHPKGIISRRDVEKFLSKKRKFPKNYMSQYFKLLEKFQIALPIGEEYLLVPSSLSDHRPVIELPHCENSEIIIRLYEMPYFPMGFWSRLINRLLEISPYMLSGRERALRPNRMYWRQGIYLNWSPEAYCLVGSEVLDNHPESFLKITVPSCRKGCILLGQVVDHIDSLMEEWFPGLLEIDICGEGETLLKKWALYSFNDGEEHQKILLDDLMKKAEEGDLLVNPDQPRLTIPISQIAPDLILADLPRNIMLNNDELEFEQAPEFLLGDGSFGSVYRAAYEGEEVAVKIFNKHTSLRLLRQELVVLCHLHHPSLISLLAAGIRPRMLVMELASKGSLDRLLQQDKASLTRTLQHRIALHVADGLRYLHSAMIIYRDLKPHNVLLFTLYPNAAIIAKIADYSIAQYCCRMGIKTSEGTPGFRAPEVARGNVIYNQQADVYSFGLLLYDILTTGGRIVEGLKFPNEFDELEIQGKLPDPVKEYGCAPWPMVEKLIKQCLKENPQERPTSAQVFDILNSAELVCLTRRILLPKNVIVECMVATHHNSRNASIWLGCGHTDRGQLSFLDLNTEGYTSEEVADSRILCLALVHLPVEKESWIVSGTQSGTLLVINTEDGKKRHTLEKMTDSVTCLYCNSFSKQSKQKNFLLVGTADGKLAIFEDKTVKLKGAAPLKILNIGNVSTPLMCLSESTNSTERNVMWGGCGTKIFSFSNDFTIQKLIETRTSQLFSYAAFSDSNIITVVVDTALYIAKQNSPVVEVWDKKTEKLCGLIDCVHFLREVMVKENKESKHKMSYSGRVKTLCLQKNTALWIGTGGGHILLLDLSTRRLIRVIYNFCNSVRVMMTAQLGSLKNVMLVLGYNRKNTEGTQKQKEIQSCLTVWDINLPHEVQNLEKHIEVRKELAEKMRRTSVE

| Compound | LRRK2 pIC50 |
| --- | --- |
| Clc1cc2cnc(Nc3cnn(C4COC4)c3Cl)nc2cc1C1CCN(C2COC2)CC1 [Ex-4.17, 6-chloro-N-[5-chloro-1-(oxetan-3-yl)-1H-pyrazol-4-yl]-7-[1-(oxetan-3-yl)piperidin-4-yl]quinazolin-2-amine] | >9.20 |
| Cc1cc2cnc(Nc3cnn(C4CC4)c3Cl)nc2cc1[C@@H]1CCN([C@@]2(C)COC[C@H]2O)C[C@H]1F (single isomer, unassigned) [Ex-4.148, (3S,4S)(3S,4S) or (3S,4S)(3R,4R) or (3R,4R)(3S,4S) or (3R,4R)(3R,4R) 4-(4-{2-[(5-chloro-1-cyclopropyl-1H-pyrazol-4-yl)amino]-6-methylquinazolin-7-yl}-3-fluoropiperidin-1-yl)-4-methyloxolan-3-ol] | >9.20 |
| Cn1ncc(Nc2ncc3cc(Cl)c(C4CCN([C@]5(C)COC[C@@H]5O)CC4)cc3n2)c1C(F)F (single isomer, unassigned) [Ex-2.82, (3S,4S) or (3R,4R) 4-[4-(6-chloro-2-{[5-(difluoromethyl)-1-methyl-1H-pyrazol-4-yl]amino}quinazolin-7-yl)piperidin-1-yl]-4-methyloxolan-3-ol] | >9.20 |
| O[C@H]1COC[C@H]1N1CC[C@@H](c2cc3nc(Nc4cnn(C56CC(F)(C5)C6)c4Cl)ncc3cc2Cl)[C@H](F)C1 (single isomer, unassigned) [Ex-4.231, (3S,4S)(3S,4S) or (3S,4S)(3R,4R) or (3R,4R)(3S,4S) or (3R,4R)(3R,4R) 4-[4-(6-chloro-2-{[5-chloro-1-(3-fluorobicyclo[1.1.1]pentan-1-yl)-1H-pyrazol-4-yl]amino}quinazolin-7-yl)-3-fluoropiperidin-1-yl]oxolan-3-ol] | >9.20 |
| Cc1c(Nc2ncc3cc(Cl)c(C4CCN(C5CC[C@@H]6C[C@H]56)CC4)cc3n2)cnn1C1CC1 (stereo partly drawn) [Ex-4.172, 7-{1-[(1S,5R)-bicyclo[3.1.0]hexan-2-yl]piperidin-4-yl}-6-chloro-N-(1-cyclopropyl-5-methyl-1H-pyrazol-4-yl)quinazolin-2-amine] | 7.53 |
| Cc1c(Nc2ncc3cc(Cl)c(C4CCN(C5CC[C@H]5O)CC4)cc3n2)cnn1C1CC1 (single isomer, unassigned) [Ex-1.5, (1R,2S) or (1R,2R) or (1S,2S) or (1S,2R) 2-(4-(6-chloro-2-((1-cyclopropyl-5-methyl-1H-pyrazol-4-yl)amino)quinazolin-7-yl)piperidin-1-yl)cyclobutan-1-ol] | >9.20 |
| CC1(Cn2ncc(Nc3ncc4cc(Cl)c([C@@H]5CCN(C6COC6)C[C@H]5F)cc4n3)c2Cl)COC1 (single isomer, unassigned) [Ex-2.11, (3S,4S) or (3R,4R) 6-chloro-N-{5-chloro-1-[(3-methyloxetan-3-yl)methyl]-1H-pyrazol-4-yl}-7-[3-fluoro-1-(oxetan-3-yl)piperidin-4-yl]quinazolin-2-amine] | 9.10 |
| [2H]C1(N2CCC(c3cc4nc(Nc5cnn(C6CC6)c5Cl)ncc4cc3Cl)CC2)COC1 [Ex-4.57, 6-chloro-N-(5-chloro-1-cyclopropyl-1H-pyrazol-4-yl)-7-(1-(oxetan-3-yl-3-d)piperidin-4-yl)quinazolin-2-amine] | >9.20 |
| Cc1cc2cnc(Nc3cnn(C4CC4(F)F)c3Cl)nc2cc1[C@@H]1CCN(C2COC[C@H]2O)C[C@H]1F (single isomer, unassigned) [Ex-4.138, (R)(3S,4S)(3S,4S) or (R)(3S,4S)(3R,4R) or (R)(3R,4R)(3S,4S) or (R)(3R,4R)(3R,4R) or (S)(3S,4S)(3S,4S) or (S)(3S,4S)(3R,4R) or (S)(3R,4R)(3S,4S) or (S)(3R,4R)(3R,4R) 4-[4-(2-{[5-chloro-1-(2,2-difluorocyclopropyl)-1H-pyrazol-4-yl]amino}-6-methylquinazolin-7-yl)-3-fluoropiperidin-1-yl]oxolan-3-ol] | 8.44 |
| CN1CC[C@H](c2cc3nc(Nc4cnn(C5(C)CC5)c4Cl)ncc3cc2Cl)[C@@H](O)C1 (single isomer, unassigned) [Ex-4.30, (3S,4S) or (3R,4R) 4-(6-chloro-2-{[5-chloro-1-(1-methylcyclopropyl)-1H-pyrazol-4-yl]amino}quinazolin-7-yl)-1-methylpiperidin-3-ol] | 7.32 |
| Cc1c(Nc2ncc3cc(Cl)c(C4CCN(C5CCC(CC#N)C5)CC4)cc3n2)cnn1C1CC1 (single isomer, unassigned) [Ex-4.170, (1R,3R) or (1S,3R) or (1R,3S) or (1S,3S) [3-(4-{6-chloro-2-[(1-cyclopropyl-5-methyl-1H-pyrazol-4-yl)amino]quinazolin-7-yl}piperidin-1-yl)cyclopentyl]acetonitrile] | 8.81 |
| Cn1ncc(Nc2ncc3cc(Cl)c([C@@H]4CCN([C@@]5(C)COC[C@H]5O)C[C@H]4F)cc3n2)c1C(F)(F)F (single isomer, unassigned) [Ex-4.253, (3S,4S)(3S,4S) or (3S,4S)(3R,4R) or (3R,4R)(3S,4S) or (3R,4R)(3R,4R) 4-[4-(6-chloro-2-{[1-methyl-5-(trifluoromethyl)-1H-pyrazol-4-yl]amino}quinazolin-7-yl)-3-fluoropiperidin-1-yl]-4-methyloxolan-3-ol] | >9.20 |
| F[C@H]1CN(C2COC2)C[C@@H]1c1cc2nc(Nc3cnn(C4CC4)c3Cl)ncc2cc1Cl (single isomer, unassigned) [Ex-4.41, (3S,4R) or (3R,4S) 6-chloro-N-(5-chloro-1-cyclopropyl-1H-pyrazol-4-yl)-7-[4-fluoro-1-(oxetan-3-yl)pyrrolidin-3-yl]quinazolin-2-amine] | 7.31 |
| COCC12CC(n3cc(Nc4ncc5cc(Cl)c(C6CCN(C7(C)COC7)CC6)cc5n4)cn3)(C1)C2 [Ex-2.3, 6-chloro-N-(1-(3-(methoxymethyl)bicyclo[1.1.1]pentan-1-yl)-1H-pyrazol-4-yl)-7-(1-(3-methyloxetan-3-yl)piperidin-4-yl)quinazolin-2-amine] | >9.20 |
| Clc1cc2cnc(Nc3cnn(CC4CC4)c3Cl)nc2cc1C1CCN(C2COC2)CC1 [Ex-4.16, 6-chloro-N-[5-chloro-1-(cyclopropylmethyl)-1H-pyrazol-4-yl]-7-[1-(oxetan-3-yl)piperidin-4-yl]quinazolin-2-amine] | >9.20 |
| Cc1cc2cnc(Nc3cnn(C4(C)CC4)c3Cl)nc2cc1C1CCN(CCC#N)CC1 [Ex-5.2, 3-(4-(2-((5-chloro-1-(1-methylcyclopropyl)-1H-pyrazol-4-yl)amino)-6-methylquinazolin-7-yl)piperidin-1-yl)propanenitrile] | >9.20 |
| Cc1cc2cnc(Nc3cnn(C4CC4(F)F)c3C)nc2cc1C1CCN([C@@H]2COC[C@@H]2O)CC1 (single isomer, unassigned) [Ex-4.142, (R)(3S,4S) or (S)(3S,4S) or (R)(3R,4R) or (S)(3R,4R) 4-[4-(2-{[1-(2,2-difluorocyclopropyl)-5-methyl-1H-pyrazol-4-yl]amino}-6-methylquinazolin-7-yl)piperidin-1-yl]oxolan-3-ol] | 8.94 |
| CC1(N2CCC(c3cc4nc(Nc5cnn(C67CC(CN8CC(F)(F)C8)(C6)C7)c5)ncc4cc3Cl)CC2)COC1 [Ex-2.60, 6-chloro-N-(1-{3-[(3,3-difluoroazetidin-1-yl)methyl]bicyclo[1.1.1]pentan-1-yl}-1H-pyrazol-4-yl)-7-[1-(3-methyloxetan-3-yl)piperidin-4-yl]quinazolin-2-amine] | >9.20 |
| CC1(n2ncc(Nc3ncc4cc(Cl)c([C@@H]5CCN(C6COC6)C[C@H]5F)cc4n3)c2Cl)CC1 (single isomer, unassigned) [Ex-4.27, (3S,4S) or (3R,4R) 6-chloro-N-[5-chloro-1-(1-methylcyclopropyl)-1H-pyrazol-4-yl]-7-[3-fluoro-1-(oxetan-3-yl)piperidin-4-yl]quinazolin-2-amine] | >9.20 |
| Cc1c(Nc2ncc3cc(Cl)c(C4CCN(C5COC[C@H]5O)[C@@H](C)C4)cc3n2)cnn1C1CC1 (single isomer, unassigned) [Ex-4.129, (3S,4S)(2S,4R) or (3S,4S)(2S,4S) or (3R,4R)(2S,4R) or (3R,4R)(2S,4S) (3 4-[4-{6-chloro-2-[(1-cyclopropyl-5-methyl-1H-pyrazol-4-yl)amino]quinazolin-7-yl}-2-methylpiperidin-1-yl]oxolan-3-ol] | >9.20 |
| Cc1cc2cnc(Nc3cnn(C4CC4)c3C)nc2cc1C1CCN([C@@H]2COC[C@@H]2O)CC1 (single isomer, unassigned) [Ex-5.7, (3S,4S) or (3R,4R) 4-(4-{2-[(1-cyclopropyl-5-methyl-1H-pyrazol-4-yl)amino]-6-methylquinazolin-7-yl}piperidin-1-yl)oxolan-3-ol] | >9.20 |
| N#CC1CCC(N2CC[C@@H](c3cc4nc(Nc5cnn(C6CC6)c5Cl)ncc4cc3Cl)[C@H](F)C2)C1 (single isomer, unassigned) [Ex-4.108, (1R,3S)-3-((3S,4S) or (1S,3R)-3-((3S,4S) or (1R,3R)-3-((3S,4S) or (1S,3S)-3-((3S,4S) or (1R,3S)-3-((3R,4R) or (1S,3R)-3-((3R,4R) or (1R,3R)-3-((3R,4R) or 1S,3S)-3-((3R,4R) 4-(6-chloro-2-((5-chloro-1-cyclopropyl-1H-pyrazol-4-yl)amino)quinazolin-7-yl)-3-fluoropiperidin-1-yl)cyclopentane-1-carbonitrile] | 8.49 |

same assay, conditions: G2019S LRRK2, 134 μM ATP (Km ATP), mean values; read-out: LRRK2 pIC50 (converted)

| Compound | IC50 [nM] |
| --- | --- |
| CC(O)(Cn1ncc(Nc2ncc3cc(Cl)c(C4CCN(C5COC5)CC4)cc3n2)c1Cl)C(F)(F)F (single isomer, unassigned) [Ex-8.25, (S) or (R) 3-[5-chloro-4-({6-chloro-7-[1-(oxetan-3-yl)piperidin-4-yl]quinazolin-2-yl}amino)-1H-pyrazol-1-yl]-1,1,1-trifluoro-2-methylpropan-2-ol] | < 0.631 |
